This is an account of results in ChEMBL document CHEMBL2396542, “Membrane anchoring γ-secretase modulators with terpene-derived moieties” (Bioorg Med Chem Lett, 2013).

For data set [1], the target named is T1, Presenilin-1 (Homo sapiens, UniProt P49768). In words: Modulation of human gamma-secretase presenilin-1 subunit expressed in CHO cells coexpressing human APP assessed as decrease in amyloid beta 42 generation after 24 hrs by ELISA. It is filed as cell-based.
Data set [2] has as its target T1, Presenilin-1. The data set is described as follows: Modulation of human gamma-secretase presenilin-1 subunit expressed in CHO cells coexpressing human APP assessed as increase in amyloid beta 38 generation after 24 hrs by ELISA. It is filed as cell-based. A general note: In an ELISA, binding on a coated surface is turned into a signal by an enzyme label.
For data set [3], the target named is T1, Presenilin-1. In words: Modulation of human gamma-secretase presenilin-1 subunit expressed in CHO cells coexpressing human APP assessed as decrease in amyloid beta 40 generation after 24 hrs by ELISA. The data set is classed as cell-based.
The nature of data set [4]: Micelle aggregation by compound at 5 to 100 uM by dynamic light scattering assay. The data set is classed as physicochemical.
The nature of data set [5]: Micelle formation by compound at 5 to 100 uM by dynamic light scattering assay. The data set is classed as physicochemical.
Data set [6] has as its target T1, Presenilin-1. The data set is described as follows: Modulation of human gamma-secretase presenilin-1 subunit expressed in CHO cells coexpressing human APP assessed as increase in amyloid beta 38 generation at EC50 after 24 hrs by ELISA relative to control. The data set is classed as cell-based.
Data set [7] in a line: Micelle aggregation by compound at 100 uM by dynamic light scattering assay. The data set is classed as physicochemical.
Data set [8] can be described thus: Micelle formation by compound at 100 uM by dynamic light scattering assay. It is filed as physicochemical.

As usually defined, the EC50 is the concentration at which the effect is half-maximal. Take `COC(=O)COc1c(C)c(C)c2c(c1C)CCC(C)(CCCC(C)CCCC(C)CCCC(C)C)O2` (stereo not drawn): the IC50 at Presenilin-1 [1] (read-out: IC50) and on Presenilin-1 [3] was over 100 µM in each case. Also, the half-maximal effective concentration (EC50) on Presenilin-1 [2] is over 100 µM.
`Cc1c(C)c2c(c(C)c1O)CCC(C)(CCCC(C)CCCC(C)CCCC(C)C)O2` (racemic) [alpha-TOCHOPHEROL]: the IC50 at Presenilin-1 [1] (read-out: IC50) and at Presenilin-1 [3] was over 100 µM in each case. For the same molecule, the concentration giving a half-maximal response (EC50) on Presenilin-1 [2] is over 100 µM.
With `CC(C)=CCC/C(C)=C/CC/C(C)=C/Cn1c2ccc(Cl)cc2c2ccc(C(C)C(=O)O)cc21` (stereo not drawn), the IC50 on Presenilin-1 [1] (read-out: IC50) was 4 µM; on Presenilin-1 [1] (read-out: pIC50 (converted)), 31.6 µM; at Presenilin-1 [3] it was 26 µM. Also, the Activity entry in data set [4] is “Not Active”; in data set [5], “Not Active”; at Presenilin-1 [6], 80%. In addition, the half-maximal effective concentration (EC50) on Presenilin-1 [2] was 2 µM.
Consider `CCCCCCCCCCCCCCOC(=O)C1(C)CCc2c(C)c(OCC(=O)O)c(C)c(C)c2O1` (stereo not drawn), for which the figures for the IC50 at Presenilin-1 [1] (read-out: IC50), on Presenilin-1 [1] (read-out: pIC50 (converted)) and at Presenilin-1 [3] were 22 µM, 39.8 µM and 34 µM, respectively. The Activity result in data set [4] is “Not Active”; in data set [5], “Not Active”; at Presenilin-1 [6], 95%. Further, on Presenilin-1 [2], the EC50 stood at 6 µM.
Take `Cc1c(C)c2c(c(C)c1OCC(=O)O)CCC(C)(CCC[C@H](C)CCC[C@H](C)CCCC(C)C)O2` (stereo partly drawn): the IC50 is 11 µM at Presenilin-1 [1] (read-out: IC50), 31.6 µM at Presenilin-1 [1] (read-out: pIC50 (converted)) and 24 µM at Presenilin-1 [3]. Also, the Activity result is “Not Active” in data set [4], “Not Active” in data set [5] and 55% on Presenilin-1 [6]. In addition, the EC50 at Presenilin-1 [2] was found to be 6 µM.
As for `CCCCCCCCOC(=O)C1(C)CCc2c(C)c(OCC(=O)O)c(C)c(C)c2O1` (stereo not drawn), the IC50 at Presenilin-1 [1] (read-out: IC50) was determined as 35 µM; at Presenilin-1 [3] it was 42 µM. Besides, the results for the Activity entry (in data set [4]; in data set [5]; on Presenilin-1 [6]) were “Not Active”, “Not Active” and 60%, respectively. In addition, the EC50 on Presenilin-1 [2] is 11 µM.
As to `C/C(=C\COc1c(C)c(C)c2c(c1C)CCC(C)(C(=O)O)O2)CCC[C@H](C)CCC[C@H](C)CCCC(C)C` (stereo partly drawn), the IC50 was 26 µM on Presenilin-1 [1] (read-out: IC50), 39.8 µM on Presenilin-1 [1] (read-out: pIC50 (converted)) and 42 µM at Presenilin-1 [3]. Moreover, the Activity result was “Not Active” in data set [4], “Not Active” in data set [5] and 35% on Presenilin-1 [6]. Further, on Presenilin-1 [2], the 50% effective concentration (EC50) turned out to be 10 µM.
Turning to `CCCCCCCCCCCCCCOc1c(C)c(C)c2c(c1C)CCC(C)(C(=O)O)O2` (stereo not drawn), the figures for the IC50 at Presenilin-1 [1] (read-out: IC50), at Presenilin-1 [1] (read-out: pIC50 (converted)) and on Presenilin-1 [3] were 14 µM, 31.6 µM and 29 µM, respectively. Also, the Activity entry in data set [4] is “Not Active”; in data set [5], “Not Active”; at Presenilin-1 [6] it was 40%. Also, on Presenilin-1 [2], the concentration giving a half-maximal response (EC50) was found to be 9 µM.
Turning to `CC(C)=CCC/C(C)=C/CC/C(C)=C/COc1c(C)c(C)c2c(c1C)CCC(C)(C(=O)O)O2` (stereo not drawn), the IC50 on Presenilin-1 [1] (read-out: IC50) was 28 µM; on Presenilin-1 [1] (read-out: pIC50 (converted)), 31.6 µM; on Presenilin-1 [3], 39 µM. The results for the Activity entry (in data set [4]; in data set [5]; on Presenilin-1 [6]) were “Not Active”, “Not Active” and 35%, respectively. Besides, the EC50 on Presenilin-1 [2] came out at 8 µM.
Consider `CC(C)=CCC/C(C)=C/CC/C(C)=C/COC(=O)C1(C)CCc2c(C)c(OCC(=O)O)c(C)c(C)c2O1` (stereo not drawn), for which the IC50 on Presenilin-1 [1] (read-out: IC50) is 27 µM; at Presenilin-1 [1] (read-out: pIC50 (converted)), 39.8 µM; at Presenilin-1 [3] it was 25 µM. Also, the Activity result is “Not Active” in data set [4], “Not Active” in data set [5] and 35% at Presenilin-1 [6]. For the same molecule, the concentration giving a half-maximal response (EC50) on Presenilin-1 [2] is 1 µM.
In the case of `CCCCCCCCCCCOC(=O)C1(C)CCc2c(C)c(OCC(=O)O)c(C)c(C)c2O1` (stereo not drawn), the figures for the IC50 on Presenilin-1 [1] (read-out: IC50), on Presenilin-1 [1] (read-out: pIC50 (converted)) and on Presenilin-1 [3] were 12 µM, 31.6 µM and 23 µM, respectively. Moreover, the Activity entry was “Not Active” in data set [4], “Not Active” in data set [5] and 100% at Presenilin-1 [6]. In addition, the EC50 on Presenilin-1 [2] came out at 5 µM.
Regarding `Cc1c(C)c2c(c(C)c1OCC(=O)O)CCC(C)(CCCC(C)CCCC(C)CCCC(C)C)O2` (stereo not drawn), the IC50 on Presenilin-1 [1] (read-out: IC50) is 12 µM; on Presenilin-1 [1] (read-out: pIC50 (converted)), 31.6 µM; on Presenilin-1 [3] it was 26 µM. Also, the Activity entry is “Not Active” in data set [4], “Not Active” in data set [5] and 55% on Presenilin-1 [6]. Further, the half-maximal effective concentration (EC50) on Presenilin-1 [2] stood at 4 µM.
For `C/C(=C\COC(=O)C1(C)CCc2c(C)c(OCC(=O)O)c(C)c(C)c2O1)CCC[C@H](C)CCC[C@H](C)CCCC(C)C` (stereo partly drawn), the IC50 at Presenilin-1 [1] (read-out: IC50) was 24 µM; on Presenilin-1 [1] (read-out: pIC50 (converted)), 39.8 µM; at Presenilin-1 [3] it was 36 µM. The results for the Activity entry (in data set [4]; in data set [5]; on Presenilin-1 [6]) were “Not Active”, “Not Active” and 135%, respectively. The EC50 on Presenilin-1 [2] was found to be 13 µM.
Turning to `CCCCCCCCOc1c(C)c(C)c2c(c1C)CCC(C)(C(=O)O)O2` (stereo not drawn), the IC50 was 57 µM at Presenilin-1 [1] (read-out: IC50), 25.1 µM at Presenilin-1 [1] (read-out: pIC50 (converted)) and over 50 µM on Presenilin-1 [3]. Further, the Activity result in data set [4] and in data set [5] was “Not Active” throughout. In addition, the EC50 on Presenilin-1 [2] was over 50 µM.
For `CCCCCCCCCCCOc1c(C)c(C)c2c(c1C)CCC(C)(C(=O)O)O2` (stereo not drawn), the Activity result in data set [7] is “Active”; in data set [8] it was “Active”; in data set [4], “Not Active”; in data set [5] it was “Not Active”; on Presenilin-1 [6] it was 65%. The IC50 on Presenilin-1 [1] (read-out: IC50) was 28 µM; on Presenilin-1 [1] (read-out: pIC50 (converted)), 31.6 µM; on Presenilin-1 [3] it was over 50 µM. The EC50 on Presenilin-1 [2] was 10 µM.
Regarding `C/C(=C\Cn1c2ccc(Cl)cc2c2ccc(C(C)C(=O)O)cc21)CCC[C@H](C)CCC[C@H](C)CCCC(C)C` (stereo partly drawn), the results for the IC50 at Presenilin-1 [1] (read-out: IC50), at Presenilin-1 [1] (read-out: pIC50 (converted)) and at Presenilin-1 [3] were 23 µM, 39.8 µM and over 50 µM, respectively. Besides, the Activity result in data set [4] and in data set [5] was “Not Active” throughout. Also, the EC50 on Presenilin-1 [2] is over 50 µM.
